Laboratory results from a melting point compilation (Tetko et al.; mined from patent text by program, amines drawn as free bases though some values may be those of a salt).

Point of comparison: `CCOC(=O)c1c(N2CCN(C(=O)c3cccs3)CC2)c2cc(F)cnc2n(Cc2ccccc2)c1=O`, melting point 130 °C. Against it:
- CCCNC1=NS(=O)(=O)c2sc(Cl)cc2N1 — higher, 258 to 261 °C
- CCCn1nc2c(N)nc3ccccc3c2c1CCNC(=O)OCC — higher, 143 to 144 °C
- COc1ccc(N2CCN(c3c(C)c(C)c4c(c3C)C(N3CCCCCC3)C(C)(C)O4)CC2)cc1 (stereo not given) — lower, 127 to 128 °C
- CCCCN1C(=O)NC(Cc2ccc(C)s2)C1=O (stereo not given) — lower, 107 °C
- CCCCc1nc(=O)c2ccc(C(=O)OCC)cc2[nH]1 — higher, 145 °C
- COc1ccc(CC(=O)Nc2c(C)c(C)c3c(c2C)[C@@H](c2ccc(C)cc2)C(C)(C)O3)cc1 — higher, 166 to 167 °C
- CCC(CC)(CC)C(=O)NC(C)(C)CO — lower, 57 to 58 °C
- O=C(C1CCN(CCO)CC1)N1CCN2C(=O)OC(c3ccccc3)(c3ccccc3)C2C1 (stereo not given) — higher, 160 to 162 °C
- Cc1c(-c2cccnc2)n(CCCCCCCC(=O)O)c2ccccc12 — lower, 110 to 113 °C
- Nc1nc2ccccc2c2c1ncn2CCOCc1cc2ccccc2o1 — higher, 201 to 203 °C
- CC1(C)COC(=O)C1=O — lower, 61 to 64 °C
- CCOC(=O)C(=O)Nc1ccc(C)cc1[N+](=O)[O-] — lower, 126 °C
- CC(C)Nc1nc(NC(C)C)nc(OC(F)F)n1 — lower, 81 to 82 °C
- COc1ccc(CN(C)CCc2ccc(NC(=O)c3cccc4c(=O)c5ccccc5n(C)c34)cc2)cc1OC — higher, 182 °C
- O=S(=O)(O)c1ccc(O)c(O)c1 — higher, 254 to 255 °C
- C=CCOc1ccc2c(c1)Oc1cc(O)ccc1C21OC(=O)c2ccccc21 (stereo not given) — higher, 204 °C
- O=C(O)Cc1ccc2c(c1)Nc1ccccc1S2 — higher, 202 °C
- O=[N+]([O-])c1cccnc1Sc1ncccn1 — lower, 122 to 124 °C
- COc1ccc2c(C3=C(c4cn(C)c5cc(OC)ccc45)C(=O)NC3=O)cn(C)c2c1 — higher, 257 to 258 °C
- CC(=O)c1c(-c2ccc(F)cc2)nn(CC2CC2)c(=O)c1Nc1cccc2cccnc12 — higher, 150 to 151 °C
- CCOCc1nc2c(N)nc3cc(-c4cccc(C(=O)N5CCOCC5)c4)cnc3c2n1CC(C)(C)F — higher, 167 to 168 °C
- Cc1cc2c(cc1Cl)NC(=O)C2(N)c1ccccc1Cl (stereo not given) — higher, 233 °C
- Cc1cc(Cl)ccc1NC(=N)Nc1ncccc1OCc1c(F)cccc1Cl — higher, 155 to 156 °C
- Cc1ccc2nc(C3(c4ccc(S(N)(=O)=O)cc4)C=C(C(F)(F)F)NN3)sc2c1 (stereo not given) — higher, 257 to 258 °C
- COc1ccc(CC#N)cc1OC1CCCC1 — lower, 32 to 34 °C
- c1ccc(-c2nnn[nH]2)c(-c2ccc(CNc3ccnc4ccnn34)cc2)c1 — higher, 150 to 155 °C
- CS(=O)c1ccc(-n2cnc3ccc(-c4nnc(CCc5cccc(C#N)c5)o4)cc32)cc1 (stereo not given) — higher, 194 to 195 °C
- CCN(CC)CCN1C(=O)c2cc(N)cc3cc([N+](=O)[O-])cc(c23)C1=O — higher, 174 °C
- CCN(CC)CCNC(C(=O)NC(C)(C)C)c1ccccc1 (stereo not given) — lower, 50 to 52 °C
- O=C(O)c1cn(O)c2ccc3[nH]c(=O)sc3c2c1=O — higher, > 300 °C
- CC(=O)Nc1ccc2cc(S(N)(=O)=O)sc2c1 — higher, 214 to 217 °C
- O=C1c2ccccc2OCC1Br (stereo not given) — lower, 48 to 51 °C
- COc1ccc(C=Cc2cc(F)c(OC)c(OC)c2)cc1O — lower, 86 to 87 °C
- CC(N=c1[nH]c(-c2ccccc2)c(-c2ccnc(Nc3ccccc3)n2)s1)N(C)C (stereo not given) — higher, 196 to 197 °C
- CC(=O)NCCC1=C(C(C)C)Cc2ccc3nc(C)oc3c21 — higher, 135 to 138 °C
- O=C(c1cc2ccnc(Cl)c2[nH]1)N1CCSCC1 — lower, 62 to 72 °C
- CN(C)C(=O)C1Cc2c([nH]c3ccccc23)C(c2ccc3c(c2)OCO3)N1C(=O)C=Cc1ccccc1 (stereo not given) — higher, 175 to 178 °C
- COC(=O)c1ccc(C#CC(=O)c2ccc3c(c2)C(C)(C)CCC3)cc1O — lower, 114 to 116 °C
- CCOC(Cl)(Cl)C1OC(=C(Cl)Cl)c2cc(C(=O)O)ccc2O1 (stereo not given) — lower, 121 to 122 °C
